Measurements published in patent US20180228853A1 (priority 2015, published 2018).
Where two headings read alike, the source gives them in different places.

Experiments:
[1] = system: H1N1 virus particles; assay: Direct binding assay to H1N1 virus particles (DART TOF-MS); design: species or system Influenza A (H1N1) virus
Method: Further, direct binding of test biomarkers in HSRx 351 to influenza virus and hemagglutinin were evaluated using the methods described in Roscheck Jr 2009. […] The methodology used is described in Roschek Jr 2009.
Viral Particles—Briefly, H1N1 virus particles were incubated with HSRx 351 or synthetic biomarkers 6 or 7 analog, to allow binding of the compounds within HSRx 351. After incubation, unbound compounds were removed by washing the virus particles three times through a 100 kDa molecular weight cut off membrane filter (Amicon 100 kDa filter, Ultracel PL-100; Millipore Corp. Billerica, Mass.) with phosphate buffered saline (PBS). The virus particles were then collected and fixed in 100% EtOH. The fixed virus particles and the washed fractions containing the unbound chemicals were collected and analyzed directly by DART TOF-MS for comparison.

[2] = system: H1N1 virus strain A/PR/8/34; assay: microbe, parasite or virus in culture; format: cell-based, Influenza A (H1N1) virus; settings: MDCK cells
[3] = system: flu and/or flu like symptoms; settings: 10 day regimen, 30 subjects per group
[4] = system: influenza or influenza-like illness; assay: Randomized, single-blind clinical study, treatment of influenza or influenza-like illness in combination with Tamiflu; format: in vivo, human
Method: Subjects were randomized and placed on a treatment regimen of five days. Group C contained 29 subjects that received 75 mg of Tamiflu® (Oseltamivir Phosphate) in capsule form two times a day for five days. Group D contained 29 subjects that received 75 mg of Tamiflu® (Oseltamivir Phosphate) in capsule form and two 175 mg lozenges of HSRx 351 two times a day for 5 days.
Subjects were also instructed to record any adverse events.
Statistical Analysis/Results—A survival analysis was performed to compare over time the Influenza symptom functions of groups C and D. The time dependent event for which survival and hazard functions were calculated was the final data collection visit for each subject. A Generalized Linear Mixed Model was run to test the hypothesis of fewer adverse events in the combination treatment Group D versus Tamiflu® (Oseltamivir phosphate) only treatment groups C. Parameter estimates such as beta weights and R2 were evaluated along with a P value significance level set at 5%.

[5] = preliminary statistical results
[6] = Influenza A virus, read-out: IC50
[7] = Influenza A virus, read-out: IC50 (μg/mL)

Compound: 3-Hydroxyflavonone [Biomarker 7 analog]
- binding to H1N1 virus particles (enrichment in the fixed virus samples over the washed fractions) [1]: bind H1N1 virus particles
- IC50 (μg/mL) [2]: 2.8 and μg/mL
- IC50 ([2]; read-out: IC50): 8.7 µM

Compound: CCOC(=O)C1=C[C@@H](OC(CC)CC)[C@H](NC(C)=O)[C@@H](N)C1 [Tamiflu ®, Oseltamivir Phosphate]
- medically related adverse events reported [3]: Five
- Adverse events attributed to study product ([4]; 29 subjects per group): 4 number of subjects
- At least one symptom worsened by end of study ([4]; 29 subjects per group): 6 number of subjects
- Multiple symptoms worsened by end of study ([4]; 29 subjects per group): 3 number of subjects
- Symptoms failed to improve by end of study ([4]; 29 subjects per group): 2 number of subjects
- Composite VAS assessment exceeding baseline VAS ([4]; five day treatment, preliminary results): baseline VAS = 126
- % Average Reduction, Aches and pains [4, 5]: 64.46%
- % Average Reduction, Composite [4, 5]: 63.83%
- % Average Reduction, Degree of coughing [4, 5]: 67.74%
- % Average Reduction, Fever reduction [4, 5]: 85.38%
- % Average Reduction, Frequency of coughing [4, 5]: 50.38%
- % Average Reduction, Mucus discharge in the respiratory tract [4, 5]: 54.63%
- % Average Reduction, Nasal congestion [4, 5]: 66.35%
- % Average Reduction, Quality of sleep [4, 5]: 57.89%

Compound: CCOC(=O)C1=C[C@@H](OC(CC)CC)[C@H](NC(C)=O)[C@@H](N)C1 [Oseltamivir, oseltamivir]
- IC50 [2, 6]: 0.32 µM
- IC50 [2, 7]: 0.1 µg/mL

Compound: NC12CC3CC(CC(C3)C1)C2 [Amantadine, amantadine]
- IC50 [2, 6]: 27 µM
- IC50 [2, 7]: 4.1 µg/mL
